Measured values from ChEMBL document CHEMBL1201862, “PubChem BioAssay data set” (2004).
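Dose response: 5 concentrations. Exposure: 48 h. Format: 96-well plates. Endpoint: linear interpolation; highest concentration if not reached. GI50 = concentration required for 50% inhibition of growth.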 Activity calls are given as the source filed them. Cut-off read from the data, not from the text of the source: active = GI50 up to about 1.1 µM and inactive = higher.

What was measured:
Assay in all cases: NCI tumour cell line growth inhibition, 48 h
786-0 = tested on: 786-0
A498 = tested on: A498
A549 = tested on: A549
ACHN = tested on: ACHN
BT-549 = tested on: BT-549
CAKI-1 = tested on: CAKI-1
CCRF-CEM = tested on: CCRF-CEM
COLO 205 = tested on: COLO 205
DU-145 = tested on: DU-145
EKVX = tested on: EKVX
HCC 2998 = tested on: HCC 2998
HCT-116 = tested on: HCT-116
HCT-15 = tested on: HCT-15
HOP-62 = tested on: HOP-62
HOP-92 = tested on: HOP-92
HT-29 = tested on: HT-29
IGROV-1 = tested on: IGROV-1
K562 = tested on: K562
KM12 = tested on: KM12
LOX IMVI = tested on: LOX IMVI
M14 = tested on: M14
MCF7 = tested on: MCF7
MDA-MB-231 = tested on: MDA-MB-231
MDA-MB-435 = tested on: MDA-MB-435
MOLT-4 = tested on: MOLT-4
Malme-3M = tested on: Malme-3M
NCI-H226 = tested on: NCI-H226
NCI-H23 = tested on: NCI-H23
NCI-H460 = tested on: NCI-H460
NCI-H522 = tested on: NCI-H522
NCI/ADR-RES = tested on: NCI/ADR-RES
OVCAR-3 = tested on: OVCAR-3
OVCAR-4 = tested on: OVCAR-4
OVCAR-5 = tested on: OVCAR-5
OVCAR-8 = tested on: OVCAR-8
PC-3 = tested on: PC-3
RPMI-8226 = tested on: RPMI-8226
RXF 393 = tested on: RXF 393
SF-268 = tested on: SF-268
SF-295 = tested on: SF-295
SF-539 = tested on: SF-539
SK-MEL-28 = tested on: SK-MEL-28
SK-MEL-2 = tested on: SK-MEL-2
SK-MEL-5 = tested on: SK-MEL-5
SK-OV-3 = tested on: SK-OV-3
SN12C = tested on: SN12C
SNB-19 = tested on: SNB-19
SNB-75 = tested on: SNB-75
SR = tested on: SR
SW-620 = tested on: SW-620
TK-10 = tested on: TK-10
U-251 = tested on: U-251
UACC-257 = tested on: UACC-257
UACC-62 = tested on: UACC-62
UO-31 = tested on: UO-31

For `O=C(OCC1CC(C2(O)CCCCC2)C(=O)O1)c1ccccc1` (stereo not given), the GI50 (786-0) was > 100 µM (inactive), the GI50 (A498) was > 100 µM (inactive) and the GI50 (A549) was > 100 µM (inactive). For the same molecule, the GI50 (ACHN) was > 100 µM (inactive), the GI50 (BT-549) was > 100 µM (inactive) and the GI50 (CAKI-1) was > 100 µM (inactive). For the same molecule, the GI50 (CCRF-CEM) was > 100 µM (inactive), the GI50 (COLO 205) was > 100 µM (inactive) and the GI50 (DU-145) was > 100 µM (inactive). For the same molecule, the GI50 (EKVX) was > 100 µM (inactive), the GI50 (HCC 2998) was > 100 µM (inactive) and the GI50 (HCT-116) was > 100 µM (inactive). For the same molecule, the GI50 (HCT-15) was greater than 100 µM, the GI50 (HOP-62) was > 100 µM (inactive) and the GI50 (HOP-92) was 5.5 µM (inactive). For the same molecule, the GI50 (HT-29) was > 100 µM (inactive), the GI50 (IGROV-1) was > 100 µM (inactive) and the GI50 (K562) was > 100 µM (inactive). The GI50 (KM12) was > 100 µM (inactive), the GI50 (LOX IMVI) was > 100 µM (inactive) and the GI50 (M14) was > 100 µM (inactive). The GI50 (MCF7) was > 100 µM (inactive), the GI50 (MDA-MB-231) was > 100 µM (inactive) and the GI50 (MDA-MB-435) was > 100 µM (inactive). For the same molecule, the GI50 (MOLT-4) was > 100 µM (inactive), the GI50 (Malme-3M) was > 100 µM (inactive) and the GI50 (NCI-H226) was > 100 µM (inactive). For the same molecule, the GI50 (NCI-H23) was > 100 µM (inactive), the GI50 (NCI-H460) was 71.8 µM (inactive) and the GI50 (NCI-H522) was > 100 µM (inactive). The GI50 (NCI/ADR-RES) was > 100 µM (inactive), the GI50 (OVCAR-3) was > 100 µM (inactive) and the GI50 (OVCAR-4) was > 100 µM (inactive). For the same molecule, the GI50 (OVCAR-5) was > 100 µM (inactive), the GI50 (OVCAR-8) was > 100 µM (inactive) and the GI50 (PC-3) was > 100 µM (inactive). The GI50 (RPMI-8226) was > 100 µM (inactive), the GI50 (RXF 393) was > 100 µM (inactive) and the GI50 (SF-268) was > 100 µM (inactive). The GI50 (SF-295) was > 100 µM (inactive), the GI50 (SF-539) was > 100 µM (inactive) and the GI50 (SK-MEL-28) was > 100 µM (inactive). The GI50 (SK-MEL-2) was > 100 µM (inactive), the GI50 (SK-MEL-5) was > 100 µM (inactive) and the GI50 (SK-OV-3) was > 100 µM (inactive). The GI50 (SN12C) was > 100 µM (inactive), the GI50 (SNB-19) was > 100 µM (inactive) and the GI50 (SNB-75) was > 100 µM (inactive). The GI50 (SR) was > 100 µM (inactive), the GI50 (SW-620) was > 100 µM (inactive) and the GI50 (TK-10) was > 100 µM (inactive). For the same molecule, the GI50 (U-251) was > 100 µM (inactive), the GI50 (UACC-257) was > 100 µM (inactive) and the GI50 (UACC-62) was > 100 µM (inactive). The GI50 (UO-31) was 55.8 µM (inactive).
